In US10173995B2, “Pyridine compounds used as PI3 kinase inhibitors” (Teligene Ltd., priority 2013, dated 2019):

Key:
[1] = system: MCF-7 human breast cancer cell lines; assay: MCF-7 cell proliferation assay (CCK-8/WST-8, 72 hours); format: cell-based; conditions: MCF7, WST-8
Description: A representative number of compounds were assayed against MCF-7 human breast cancer cell lines using the cell proliferation assay:
1. MCF-7 cells were cultured in EMEM (GIBCO, Cat#41500) medium supplemented with 10% fetal bovine serum, 0.01 mg/ml human recombinant insulin and 1% penicillin-streptomycin solution, in the temperature of 37° C., 5% CO2 and 95% humidity. The cells were harvested during the logarithmic growth period and counted with hemocytometer. The cell viability will be over 98% by trypan blue exclusion. Cell Counting Kit-8 (Dojindo, Cat# CK04) was used. 2. A cell suspension (100 μl) was added into 96-well plates (triplicates for each cell concentration), the cell density was 4.0×10^3/well. The next day, the test articles or positive drug stock solution were dissolved in DMSO at the concentration of 10 mM, the stock solutions were diluted with DMSO by serial 3 or 10 fold dilution. Then the test articles dilutions were further diluted with culture medium to the final concentrations of (10.0 μM, 3.33 μM, 1.11 μM, 366 nM, 122 nM, 40.7 nM, 13.6 nM, 4.52 nM and 0 nM), the positive drug dilutions were further diluted with culture medium to 9 final concentrations of (10 μM, 1 μM, 100 nM, 10 nM, 1 nM, 0.1 nM, 0.01 nM, 0.001 nM and 0 nM). […] The absorbance was recorded at 450 nm using Victor Multilabel Plate Reader. […]

A549 cell line xenograft = assay: In vivo subcutaneous A549 cell line xenograft model in nude mice, tumor growth inhibition; conditions: for Tumor growth inhibition (TGI, %) at 14 days: day 14, A549 xenograft nude mice
Description: (§1) A representative protocol for the in vivo experiment is as follows to establish the subcutaneous A549 cell line xenograft model in nude mice and to evaluate the in vivo therapeutic efficacy of the compounds: A549 cells were cultured in RPMI1640 containing 10% fetal bovine serum, 1% L-glutamine, 100 U/mL penicillinG and 100 μg/mL streptomycin. Cells in logarithmic growth phase were harvested and resuspended in 1×PBS for implantation.
(§2) Tumor xenografts were established by injecting tumor cells 5×10^6/mouse into the right flank by sc under sterile conditions. When the tumors reached an appropriate size (100-200 mm^3), mice were randomized into 6 mice per group (8 mice in control group). The tumors were measured using a caliper in two dimensions, length (a), and width (b). Tumor volumes were estimated from measurements of two diameters of the individual tumors as follows: Tumor Volume(mm^3)=(a×b^2)/2 The tumor sizes and animal body weights were measured twice a week. Mice were observed daily for clinical signs. Blood samples were collected 2 hours after last treatment; plasma samples were prepared and stored at −80° C. Tumor tissues were separated, weighed, taken picture, and subsequently stored at −80° C. for further analysis. All animal experiments were performed in accordance with the Guidelines for Use and Care of Animals of the University of Traditional Medicine. The parameters for in vivo efficacy evaluation were calculated according to the guidance of SFDA. Percent T/C (%) was calculated with the following formula: T/C(%)=(TRTV/CRTV)×100%, where TRTV and CRTV stand for relative tumor volume in treatment group and vehicle control group, respectively. Relative tumor volume (RTV) was calculated using the formula: RTV=Vt/V0, where Vt represents volume on testing day, and V0 represents volume on first day of treatment. Tumor growth inhibition (TGI, %) were calculated as TGI (%)=(Ctw−Ttw)/Ctw×100%, where Ctw and Ttw represent mean tumor weight in vehicle control and treatment group, respectively.
(§3) Compound Preparation: Test articles were dissolved in 100% N-methylpyrrolidone (NMP) and 10× solutions were prepared every five days, aliquotted, and stored in the dark at room temperature. On each treatment day, stock solution aliquots were diluted with polyethylene glycol (PEG300) to provide the formulated drug in 10% NMP: 90% PEG300. Dosing solutions were protected from light, and the formulated drug was administered within 1 hour after preparation. In all groups, the dosing volume of 10 mL/kg (0.2 mL/20 g mouse) was scaled to the weight of each animal as determined on the day of dosing, except on weekends when the previous BW is carried forward. Test articles were administered by oral gavage (p.o.) once daily until the end of the study.
(§4) At study endpoint, after blood collection, mice were practiced euthanasia by cervical dislocation, the tumor tissue was collected first, then abdominal cavity was cut open, liver and spleen were excised, then weight after the gallbladder was removed respectively. Organ weight between the treated versus the control groups were compared.

[2] = Kidney weight change versus control in A549 xenograft model in nude mice; format: in vivo; conditions: day 21, A549 xenograft nude mice
Description: as §1, §2, §3, §4

PI3K alpha (PIK3CA) = PI3K alpha (PIK3CA) (Homo sapiens (Human), UniProt P42336); assay: In vitro assay of ability to inhibit PI3K alpha activity (phage-tagged kinase competition binding, qPCR)
PI3K alpha (PIK3CA), sequence (P42336 whole entry, species assumed): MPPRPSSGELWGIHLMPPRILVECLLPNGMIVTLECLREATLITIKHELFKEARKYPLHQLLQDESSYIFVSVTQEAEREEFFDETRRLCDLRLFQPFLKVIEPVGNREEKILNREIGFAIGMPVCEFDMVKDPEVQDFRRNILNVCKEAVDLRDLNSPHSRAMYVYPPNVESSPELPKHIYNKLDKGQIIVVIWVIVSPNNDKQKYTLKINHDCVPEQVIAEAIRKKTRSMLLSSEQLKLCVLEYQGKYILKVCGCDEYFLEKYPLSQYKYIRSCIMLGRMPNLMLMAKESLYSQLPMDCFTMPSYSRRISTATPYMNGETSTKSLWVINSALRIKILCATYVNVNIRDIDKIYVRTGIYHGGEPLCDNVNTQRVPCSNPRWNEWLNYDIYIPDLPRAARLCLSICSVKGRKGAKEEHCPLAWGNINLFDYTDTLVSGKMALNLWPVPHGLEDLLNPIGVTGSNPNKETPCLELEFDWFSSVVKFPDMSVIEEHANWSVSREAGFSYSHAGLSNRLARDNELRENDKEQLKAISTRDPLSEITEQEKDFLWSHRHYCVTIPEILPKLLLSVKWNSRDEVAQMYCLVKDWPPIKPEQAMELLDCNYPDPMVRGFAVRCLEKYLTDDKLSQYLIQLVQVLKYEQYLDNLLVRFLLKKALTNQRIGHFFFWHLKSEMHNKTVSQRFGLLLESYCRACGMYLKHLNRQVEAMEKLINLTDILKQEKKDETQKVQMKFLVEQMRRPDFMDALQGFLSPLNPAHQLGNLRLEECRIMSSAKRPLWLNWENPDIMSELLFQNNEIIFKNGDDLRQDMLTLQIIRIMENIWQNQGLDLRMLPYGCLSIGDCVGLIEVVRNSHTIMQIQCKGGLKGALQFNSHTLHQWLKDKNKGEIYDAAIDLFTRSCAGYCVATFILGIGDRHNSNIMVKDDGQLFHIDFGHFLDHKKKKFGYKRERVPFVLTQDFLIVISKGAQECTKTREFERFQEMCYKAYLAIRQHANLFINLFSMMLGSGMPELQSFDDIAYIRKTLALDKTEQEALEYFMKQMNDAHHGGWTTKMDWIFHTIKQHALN
Description: (§5) (a) An in vitro assay which determines the ability of a test compound to inhibit PI3K alpha activity: PI3 alpha (PIK3CA) kinase-tagged T7 phage strains were prepared in an E. coli host derived from the BL21 strain. E. coli were grown to log-phase and infected with T7 phage and incubated with shaking at 32° C. until lysis. The lysates were centrifuged and filtered to remove cell debris. The remaining kinases were produced in HEK-293 cells and subsequently tagged with DNA for qPCR detection. […] The liganded beads were blocked with excess biotin and washed with blocking buffer (SeaBlock (Pierce), 1% BSA, 0.05% Tween 20, 1 mM DTT) to remove unbound ligand and to reduce non-specific binding. Binding reactions were assembled by combining kinases, liganded affinity beads, and test compounds in 1× binding buffer (20% SeaBlock, 0.17×PBS, 0.05% Tween 20, 6 mM DTT). All reactions were performed in polystyrene 96-well plates in a final volume of 0.135 ml. The assay plates were incubated at room temperature with shaking for 1 hour and the affinity beads were washed with wash buffer (1×PBS, 0.05% Tween 20). […] The kinase concentration in the eluates was measured by qPCR.
An 11-point 3-fold serial dilution of each test compound was prepared in 100% DMSO at 100× final test concentration and subsequently diluted to 1× in the assay (final DMSO concentration=1%).
Binding constants (Kd's) were calculated with a standard dose-response curve using the Hill equation: Response=Background+(Signal−Background)/(1+(Kd^Hill Slope/Dose^Hill Slope)) The Hill Slope was set to −1. Curves were fitted using a non-linear least square fit with the Levenberg-Marquardt algorithm.

[3] = molecular target: MTOR (Mammalian target of rapamycin) (Homo sapiens (Human), UniProt P42345); assay: In vitro assay of ability to inhibit MTOR (same conditions as PI3K alpha assay); format: binding; conditions: read-out: IC50 for MTOR inhibition
Description: as §5, with “qPCR. […]” for “qPCR.”
Binding constants (Kd's) were calculated with a standard dose-response curve using the Hill equation: Response=Background+(Signal−Background)/(1+(Kd^Hill Slope/Dose^Hill Slope)) The Hill Slope was set to −1. […]

[4] = 49 μmol/kg oral gavage once daily
[5] = 98 μmol/kg oral gavage once daily

IC50 [1] [nM]	Kidney weight change compared to the control at 21 days [2, 4] [%]	Kidney weight change compared to the control at 21 days [2, 5] [%]	IC50 (PI3K alpha (PIK3CA)) [nM]	Compound	Tumor growth inhibition (TGI, %) at 14 days (A549 cell line xenograft; [4]) [%]	Tumor growth inhibition (TGI, %) at 14 days (A549 cell line xenograft; [5]) [%]	further results
82.4	–	–	–	CC(=O)Nc1cc(C(F)(F)F)c(-c2cc(N3CCOCC3)nc(N3CCOCC3)n2)cn1 [Compound 2, N-(5-(2,6-dimorpholinopyrimidin-4-yl)-4-(trifluoromethyl)pyridin-2-yl)acetamide]	52	82	–
–	–	–	1.9	CNc1cc(C(F)(F)F)c(-c2cc(N3CCOCC3)nc(N3CCOCC3)n2)cn1 [Compound 4, 5-(2,6-dimorpholinopyrimidin-4-yl)-N-methyl-4-(trifluoromethyl)pyridin-2-amine]	–	–	–
–	–	–	10	CCNc1cc(C(F)(F)F)c(-c2cc(N3CCOCC3)nc(N3CCOCC3)n2)cn1 [Compound 5, 5-(2,6-dimorpholinopyrimidin-4-yl)-N-ethyl-4-(trifluoromethyl)pyridin-2-amine]	–	–	–

The remaining lines, values behind:

Compound	IC50 [1] [nM]	Kidney weight change compared to the control at 21 days [2, 4] [%]	Kidney weight change compared to the control at 21 days [2, 5] [%]	IC50 (PI3K alpha (PIK3CA)) [nM]	Tumor growth inhibition (TGI, %) at 14 days (A549 cell line xenograft; [4]) [%]	Tumor growth inhibition (TGI, %) at 14 days (A549 cell line xenograft; [5]) [%]	further results
Nc1cc(C(F)(F)F)c(-c2cc(N3CCOCC3)nc(N3CCOCC3)n2)cn1 [Compound 1, 5-(2,6-Dimorpholinopyrimidin-4-yl)-4-(trifluoromethyl)pyridin-2-amine, reference compound]	186	−8.7	−20.1	–	36	70	–
CCCNc1cc(C(F)(F)F)c(-c2cc(N3CCOCC3)nc(N3CCOCC3)n2)cn1 [Compound 6, 5-(2,6-dimorpholinopyrimidin-4-yl)-N-propyl-4-(trifluoromethyl)pyridin-2-amine]	–	–	–	60	–	–	–
NCC(=O)Nc1cc(C(F)(F)F)c(-c2cc(N3CCOCC3)nc(N3CCOCC3)n2)cn1 [Compound 9, 2-amino-N-(5-(2,6-dimorpholinopyrimidin-4-yl)-4-(trifluoromethyl)pyridin-2-yl)acetamide]	–	−5.0	−8.1	0.84	–	–	Efficacy in A549 xenograft model at day 21 (in words) (A549 cell line xenograft; 49 μmol/kg dose, day 21): better efficacy than Compound 1; Kidney weight decrease compared with the control (in words) [2]: much less decreased kidney weight than Compound 1; IC50 [3]: 26 nM
